Data reported in patent US20240366587A1, “USES OF A SOMATOSTATIN MODULATOR FOR THE TREATMENT OF DISEASE” (Crinetics Pharmaceuticals, Inc., priority 2021, published 2024).
“And” between values parts separate entries of the source, which are not always exact repeats. Equal entries are not always repeated.

Legend:
IGF-1 = assay: Phase 2 clinical trials of acromegaly patients previously treated with LA-SRLs: steady state IGF-1 change by dose; format: in vivo, human; details: baseline = IGF-1 at last LA-SRL injection
Source text: The switch to Compound A-monohydrochloride occurred 4 weeks after last LA-SRL injection.

[1] = Phase 1 single-and-multiple-dose study in healthy volunteers: oral glucose tolerance test / safety; format: in vivo, human; details: for glucose concentration by 2 hours post challenge / peak glucose concentration 1 hour post oral glucose challenge: one subject
Experimental: A phase 1, randomized, double-blind, placebo-controlled, single and multiple ascending dose study was performed with oral Compound A at a single study center. Inclusion criteria included age 18 to 50 years; body mass index of 18-30 kg/m^2; and if female, postmenopausal by history or surgery. Exclusion criteria included presence of significant medical history.
In the single-dose phase, participants were randomized 6:2 to Compound A (1.25, 2.5, 5, 10, 20, 40, and 60 mg) or placebo in 7 cohorts (S1 to S7). Cohorts comparing oral bioavailability of solution versus capsules and the effect of a standardized high-fat, high-calorie breakfast on oral bioavailability of the capsule formulation employed the 10 mg dose level. In the multiple-dose phase, participants were randomized 6:3 to once-daily oral Compound A-HCl capsules or placebo at doses of 5 mg for 7 days (M1, Day Last=Day 7), and 10, 20, and 30 mg daily for 10 days (M2, M3, M4, Day Last=Day 10).
Safety assessments: Safety assessments included monitoring of clinical laboratory tests, cardiovascular safety monitoring (continuous Holter monitoring, ECG, telemetry), and physical examinations conducted at scheduled times throughout the study in the research units as well as post-discharge (up to 9 days after the single-dose, or up to 11 days after the last dose for multiple-dose cohorts). Adverse events and concomitant medications were recorded. Laboratory samples for clinical chemistry, hematology, coagulation tests, and urinalysis were collected under fasted conditions.
In the multiple-dose cohorts, baseline serum TSH, ACTH, and prolactin samples were collected on Day −2, and an oral glucose tolerance test (OGTT) was conducted on Day −7 or earlier. These assessments were repeated on Day 8 (M1) or Day 11 (M2 and subsequent cohorts).
Clinically significant hypoglycemia occurred in 1 subject in Cohort M3 (Compound A-HCl−10 days at 20 mg/day) at 2 and at 3 hours post-glucose challenge, and in 1 subject in Cohort M4 (Compound A-HCl−10 days at 30 mg/day) at 3 hours post-glucose challenge at the baseline assessment (Day −7).

[2] = Cohort M2 (10 mg/day, 10 days), monohydrochloride
[3] = Cohort M3 (20 mg/day, 10 days), monohydrochloride

Cl.N#Cc1cccc(-c2ccc3ncc(-c4cc(F)cc(F)c4)c(N4CCC(N)CC4)c3c2)c1O [Compound A-HCl, 3-[4-(4-amino-piperidin-1-yl)-3-(3,5-difluoro-phenyl)-quinolin-6-yl]-2-hydroxy-benzonitrile monohydrochloride]
steady state IGF-1 change from baseline (IGF-1; 10 and 20 mg per day): IGF-1 levels that were above baseline | steady state IGF-1 change from baseline (IGF-1; 30/day and 40 mg/day): changes from baseline of near zero | Glucose AUC (0-3 hr) Difference (SE), oral glucose tolerance test ([1]; healthy volunteers, 7 days - 5 mg/day, Day −7 vs day after last dose): 3.8 (4.00) h*mmol/L | Glucose AUC (0-3 hr) Difference (SE), oral glucose tolerance test ([1]; healthy volunteers, 10 days - 10 mg/day): 2.4 (3.19) h*mmol/L | Glucose AUC (0-3 hr) Difference (SE), oral glucose tolerance test ([1]; healthy volunteers, 10 days - 20 mg/day): 5.1 (3.12) h*mmol/L | Glucose AUC (0-3 hr) Difference (SE), oral glucose tolerance test ([1]; healthy volunteers, 10 days - 30 mg/day, monohydrochloride): 3.2 h*mmol/L and 3.2 (1.34) h*mmol/L | change in fasting plasma glucose ([1]; healthy volunteers, multiple dosing up to 30 mg): wasn't significantly changed | treatment emergent adverse events of hyperglycemia ([1]; healthy volunteers, repeated daily dosing 5-30 mg, OGTT after 10 days of dosing): two treatment emergent adverse effects (TEAEs) of asymptomatic hyperglycemia occurred | glucose concentration by 2 hours post challenge [1, 2]: 77 mg/dL and 4.3 mmol/L | peak glucose concentration 1 hour post oral glucose challenge [1, 2]: 12.4 mmol/L and 223 mg/dL | glucose concentration by 2 hours post challenge [1, 3]: 5.8 mmol/L and 104 mg/dL | peak glucose concentration 1 hour post oral glucose challenge [1, 3]: 12.2 mmol/L and 220 mg/dL
